Converted amounts (≈) assume the structure as drawn. Where two headings read alike, the source gives them in different places.
Columns and labels:
[1] = tested on: Streptococcus sp. Group B; experiment: Agar-dilution MIC; assay type: cell-based; conditions: Table 18, 24 hours
Description: (§1) The in vitro activity of antibiotic A41030 factors A and B against a number of representative aerobic, gram-positive bacteria, including Streptococcus sp. Group D, has been determined using a standard agar-dilution assay.

[2] = tested on: Streptococcus sp. ATCC 10389; experiment: Agar-dilution MIC; assay type: cell-based; conditions: Table 18, 24 hours
Description: as §1

[3] = tested on: Enterobacter cloacae; experiment: Agar-dilution MIC; assay type: cell-based; conditions: Table 17, 24 hours
[4] = tested on: Clostridium difficile; assay type: cell-based; conditions: Table 16
Description: The A41030 antibiotic factors A, B, C, D, E, F, and G, are also active against a number of strains of Clostridium difficile, as determined by the agar-dilution method.

[5] = tested on: Enterobacter aerogenes; experiment: Agar-dilution MIC; assay type: cell-based; conditions: Table 17; 24 hours; Enterobacter aerogenes C32
[6] = tested on: Pc. magnus; experiment: Agar-dilution MIC (anaerobes); assay type: cell-based, Peptococcus magnus; conditions: Table 15
Procedure: The MIC values were determined by the agar-dilution method, and are recorded in Table 15, which follows.

[7] = tested on: Peptococcus asaccharolyticus; experiment: Agar-dilution MIC (anaerobes); assay type: cell-based; conditions: Table 14; Peptococcus asaccharolyticus 1302
[8] = tested on: Staphylococcus aureus; experiment: Agar-dilution MIC; assay type: cell-based
[9] = tested on: Escherichia coli; experiment: Agar-dilution MIC; assay type: cell-based; conditions: Table 17, 24 hours
[10] = tested on: Serratia marcescens; experiment: Agar-dilution MIC; assay type: cell-based; conditions: Table 17; 24 hours; Serratia marcescens X99
[11] = tested on: Bacteroides corrodens; experiment: Agar-dilution MIC (anaerobes); assay type: cell-based; conditions: Table 14; Bacteroides corrodens 1874
[12] = tested on: Propionibacterium acnes; experiment: Agar-dilution MIC (anaerobes); assay type: cell-based
Description: Antibiotic A41030 factors A, B and C have also been tested and found to be active against a genus of anaerobic bacteria identified as Propionibacterium acnes.

[13] = tested on: Klebsiella pneumoniae; experiment: Agar-dilution MIC; assay type: cell-based; conditions: Table 17; 24 hours; Klebsiella pneumoniae X68
[14] = tested on: Bacteroides melaninogenicus; experiment: Agar-dilution MIC (anaerobes); assay type: cell-based; conditions: Table 14; Bacteroides melaninogenicus 2736
[15] = mice, administered intraperitoneally
[16] = tested on: Haemophilus parainfluenzae; experiment: Agar-dilution MIC; assay type: cell-based; conditions: Table 18, 24 hours
[17] = tested on: Streptococcus pneumoniae; experiment: Agar-dilution MIC; assay type: cell-based; conditions: 24 hours
Description: (§2) The agar-dilution procedure described by the International Collaborative study (ICS) group was used to determine the minimum inhibitory concentrations (MIC's).

[18] = tested on: Staphylococcus epidermidis; experiment: Agar-dilution MIC; assay type: cell-based; conditions: 24 hours
Description: as §2

[19] = Table 17, 24 hours, Staphylococcus aureus X400
[20] = Table 13, 24-hour, P. acnes 101
[21] = Table 13, 24-hour, P. acnes 103
[22] = Table 13, 24-hour, P. acnes 104
[23] = Table 13, 24-hour, P. acnes 105
[24] = Table 13, 24-hour, P. acnes 106
[25] = Table 13, 24-hour, P. acnes 107
[26] = Table 13, 24-hour, P. acnes 5170
[27] = Table 13, 24-hour, P. acnes 5176
[28] = Table 13, 24-hour, P. acnes 5187
[29] = Table 13, 24-hour, P. acnes 5191
[30] = Table 13, 24-hour, P. acnes 5197
[31] = Table 13, 24-hour, P. acnes 5226
[32] = Table 13, 24-hour, P. acnes 5227
[33] = Table 13, 24-hour, P. acnes 5228
[34] = Table 13, 24-hour, P. acnes 5229
[35] = Table 13, 24-hour, P. acnes 5246
[36] = Table 13, 24-hour, P. acnes 5292
[37] = Table 14, Propionibacterium acnes 79
[38] = Table 17, Streptococcus pneumoniae Park I
[39] = Table 17, Staphylococcus epidermidis EPI1

## N[C@H]1C(=O)N[C@@H]2Cc3ccc(c(Cl)c3)Oc3cc4cc(c3O)Oc3ccc(cc3Cl)[C@@H](O)[C@@H]3NC(=O)C(NC(=O)[C@@H]4NC(=O)[C@@H](NC2=O)c2cc(O)cc(c2)Oc2cc1ccc2O)c1ccc(O)c(c1)-c1c(O)cc(O)cc1[C@@H](C(=O)O)NC3=O [A41030 factor B]
[1]; Streptococcus sp. Group B 5
  MIC: 1 µg/mL (≈ 0.834 µM)
[1]; Streptococcus sp. Group B 14
  MIC: 0.125 µg/mL (≈ 0.104 µM)
[2]
  MIC: 0.25 µg/mL (≈ 0.209 µM)
[3]; Enterobacter cloacae 265A
  MIC: 128 µg/mL (≈ 107 µM)
[3]; Enterobacter cloacae EB5
  MIC: 128 µg/mL (≈ 107 µM)
[4]; C. difficile 78
  MIC: 0.5 µg/mL (≈ 0.417 µM)
[4]; C. difficile 107B
  MIC: 0.5 µg/mL (≈ 0.417 µM)
[4]; C. difficile 111F
  MIC: 1.0 µg/mL (≈ 0.834 µM)
[4]; C. difficile 1153
  MIC: 1.0 µg/mL (≈ 0.834 µM)
[4]; C. difficile 2634
  MIC: 1.0 µg/mL (≈ 0.834 µM)
[4]; C. difficile 3424-5B
  MIC: 1.0 µg/mL (≈ 0.834 µM)
[4]; C. difficile 3816
  MIC: 1.0 µg/mL (≈ 0.834 µM)
[4]; C. difficile 3950
  MIC: 1.0 µg/mL (≈ 0.834 µM)
[4]; C. difficile 6890
  MIC: 1.0 µg/mL (≈ 0.834 µM)
[4]; C. difficile 8484
  MIC: 1.0 µg/mL (≈ 0.834 µM)
[4]; C. difficile A-194
  MIC: 1.0 µg/mL (≈ 0.834 µM)
[4]; C. difficile A-195
  MIC: 1.0 µg/mL (≈ 0.834 µM)
[4]; C. difficile A-196
  MIC: 1.0 µg/mL (≈ 0.834 µM)
[4]; C. difficile A-279
  MIC: 1.0 µg/mL (≈ 0.834 µM)
[4]; C. difficile A-280
  MIC: 0.5 µg/mL (≈ 0.417 µM)
[4]; C. difficile A-281
  MIC: 1.0 µg/mL (≈ 0.834 µM)
[4]; C. difficile WAL-2112
  MIC: 1.0 µg/mL (≈ 0.834 µM)
[4]; C. difficile WAL-3657
  MIC: 1.0 µg/mL (≈ 0.834 µM)
[4]; C. difficile WAL-4268
  MIC: 0.5 µg/mL (≈ 0.417 µM)
[5]
  MIC: 64 µg/mL (≈ 53.4 µM)
[6]; Pc. magnus 1401
  MIC: 0.125 µg/mL (≈ 0.104 µM)
[6]; Pc. magnus 1421
  MIC: 0.125 µg/mL (≈ 0.104 µM)
[6]; Pc. magnus 1477
  MIC: 0.25 µg/mL (≈ 0.209 µM)
[7]
  MIC: ≤ 0.25 µg/mL
[8]
  MIC: 0.125 µg/mL (≈ 0.104 µM)
[8]; Table 17, 24 hours, Staphylococcus aureus S13E
  MIC: 0.125 µg/mL (≈ 0.104 µM)
[8]; [19]
  MIC: 0.25 µg/mL (≈ 0.209 µM)
[8]; Table 18, 24 hours, Staphylococcus aureus 3055
  MIC: 0.06 µg/mL (≈ 0.05 µM)
[8]; Table 18, 24 hours, Staphylococcus aureus V138
  MIC: 0.06 µg/mL (≈ 0.05 µM)
[9]; Escherichia coli EC14
  MIC: 128 µg/mL (≈ 107 µM)
[9]; Escherichia coli N10
  MIC: 128 µg/mL (≈ 107 µM)
[9]; Escherichia coli TEM
  MIC: 128 µg/mL (≈ 107 µM)
[10]
  MIC: 128 µg/mL (≈ 107 µM)
[11]
  MIC: 64 µg/mL (≈ 53.4 µM)
[12]; Table 13, 24-hour, P. acnes 44
  MIC: 0.06 µg/mL (≈ 0.05 µM)
[12]; Table 13, 24-hour, P. acnes 79
  MIC: 0.06 µg/mL (≈ 0.05 µM)
[12]; [20]
  MIC: 0.06 µg/mL (≈ 0.05 µM)
[12]; [21]
  MIC: 0.06 µg/mL (≈ 0.05 µM)
[12]; [22]
  MIC: 0.25 µg/mL (≈ 0.209 µM)
[12]; [23]
  MIC: 0.06 µg/mL (≈ 0.05 µM)
[12]; [24]
  MIC: 0.06 µg/mL (≈ 0.05 µM)
[12]; [25]
  MIC: 0.06 µg/mL (≈ 0.05 µM)
[12]; [26]
  MIC: ≤ 0.03 µg/mL
[12]; [27]
  MIC: 0.06 µg/mL (≈ 0.05 µM)
[12]; [28]
  MIC: 0.06 µg/mL (≈ 0.05 µM)
[12]; [29]
  MIC: 0.06 µg/mL (≈ 0.05 µM)
[12]; [30]
  MIC: 0.06 µg/mL (≈ 0.05 µM)
[12]; [31]
  MIC: 0.5 µg/mL (≈ 0.417 µM)
[12]; [32]
  MIC: 0.06 µg/mL (≈ 0.05 µM)
[12]; [33]
  MIC: 0.5 µg/mL (≈ 0.417 µM)
[12]; [34]
  MIC: 0.25 µg/mL (≈ 0.209 µM)
[12]; [35]
  MIC: 0.125 µg/mL (≈ 0.104 µM)
[12]; [36]
  MIC: 0.06 µg/mL (≈ 0.05 µM)
[12]; [37]
  MIC: 16 µg/mL (≈ 13.3 µM)
[13]
  MIC: 128 µg/mL (≈ 107 µM)
[14]
  MIC: 4 µg/mL (≈ 3.34 µM)
[15]
  LD50: > 300 mg/kg
  acute toxicity: > 300 mg/kg
[16]; Haemophilus parainfluenzae 7901
  MIC: 16 µg/mL (≈ 13.3 µM)
[16]; Haemophilus parainfluenzae 9796
  MIC: 16 µg/mL (≈ 13.3 µM)
[17]; [38]
  MIC: 0.5 µg/mL (≈ 0.417 µM)
[17]; Table 18, Streptococcus pneumoniae B1-438
  MIC: 0.5 µg/mL (≈ 0.417 µM)
[17]; Table 18, Streptococcus pneumoniae Park I
  MIC: 0.125 µg/mL (≈ 0.104 µM)
[18]; [39]
  MIC: 0.125 µg/mL (≈ 0.104 µM)
[18]; Table 17, Staphylococcus epidermidis EPI2
  MIC: 0.5 µg/mL (≈ 0.417 µM)
[18]; Table 18, Staphylococcus epidermidis 219
  MIC: 0.03 µg/mL (≈ 0.025 µM)
[18]; Table 18, Staphylococcus epidermidis 222
  MIC: 0.125 µg/mL (≈ 0.104 µM)
[18]; Table 18, Staphylococcus epidermidis 269
  MIC: 0.03 µg/mL (≈ 0.025 µM)
[18]; Table 18, Staphylococcus epidermidis 270
  MIC: 0.06 µg/mL (≈ 0.05 µM)
[18]; Table 18, Staphylococcus epidermidis 285
  MIC: 0.03 µg/mL (≈ 0.025 µM)

## A41030 factor C
[4]; C. difficile 78
  MIC: 1.0 µg/mL
[4]; C. difficile 107B
  MIC: 1.0 µg/mL
[4]; C. difficile 111F
  MIC: 2 µg/mL
[4]; C. difficile 1153
  MIC: 2 µg/mL
[4]; C. difficile 2634
  MIC: 2 µg/mL
[4]; C. difficile 3424-5B
  MIC: 1.0 µg/mL
[4]; C. difficile 3816
  MIC: 2 µg/mL
[4]; C. difficile 3950
  MIC: 2 µg/mL
[4]; C. difficile 6890
  MIC: 2 µg/mL
[4]; C. difficile 8484
  MIC: 1.0 µg/mL
[4]; C. difficile A-194
  MIC: 2 µg/mL
[4]; C. difficile A-195
  MIC: 1.0 µg/mL
[4]; C. difficile A-196
  MIC: 2 µg/mL
[4]; C. difficile A-279
  MIC: 2 µg/mL
[4]; C. difficile A-280
  MIC: 1.0 µg/mL
[4]; C. difficile A-281
  MIC: 2 µg/mL
[4]; C. difficile WAL-2112
  MIC: 2 µg/mL
[4]; C. difficile WAL-3657
  MIC: 2 µg/mL
[4]; C. difficile WAL-4268
  MIC: 1.0 µg/mL
[6]; Pc. magnus 1401
  MIC: 0.25 µg/mL
[6]; Pc. magnus 1421
  MIC: 0.25 µg/mL
[6]; Pc. magnus 1477
  MIC: 0.5 µg/mL
[7]
  MIC: ≤ 0.25 µg/mL
[8]; [19]
  MIC: 1 µg/mL
[11]
  MIC: 32 µg/mL
[12]; Table 13, 24-hour, P. acnes 44
  MIC: 0.125 µg/mL
[12]; Table 13, 24-hour, P. acnes 79
  MIC: 0.125 µg/mL
[12]; [20]
  MIC: 0.125 µg/mL
[12]; [21]
  MIC: 0.125 µg/mL
[12]; [22]
  MIC: 0.25 µg/mL
[12]; [23]
  MIC: 0.125 µg/mL
[12]; [24]
  MIC: 0.125 µg/mL
[12]; [25]
  MIC: 0.125 µg/mL
[12]; [26]
  MIC: ≤ 0.03 µg/mL
[12]; [27]
  MIC: ≤ 0.03 µg/mL
[12]; [28]
  MIC: 0.06 µg/mL
[12]; [29]
  MIC: 0.125 µg/mL
[12]; [30]
  MIC: ≤ 0.03 µg/mL
[12]; [31]
  MIC: 0.125 µg/mL
[12]; [32]
  MIC: 0.06 µg/mL
[12]; [33]
  MIC: 1.0 µg/mL
[12]; [34]
  MIC: 0.5 µg/mL
[12]; [35]
  MIC: 0.06 µg/mL
[12]; [36]
  MIC: 0.06 µg/mL
[12]; [37]
  MIC: ≤ 0.25 µg/mL
[14]
  MIC: 4 µg/mL
[17]; [38]
  MIC: 1 µg/mL
[18]; [39]
  MIC: 0.5 µg/mL
